Ends that are not written are not given here.
Tests used:
peptide-pulsed T2 [1] = test: IFN-gamma ELISPOT assay on CTLs induced with peptide (HLA-A*0201); assay type: cell-based, human; settings: CTLs from HLA-A*0201 positive donor, 3 rounds of stimulation, day 21; vs control wells without peptide
From the text: Monocyte-derived dendritic cells (DCs) were used as antigen-presenting cells to induce cytotoxic T lymphocyte (CTL) responses against peptides presented on human leukocyte antigen (HLA). DCs were generated in vitro as described elsewhere (Nakahara S et al., Cancer Res 2003 Jul. 15, 63(14): 4112-8). Specifically, peripheral blood mononuclear cells (PBMCs) isolated from a normal volunteer (HLA-A*0201 positive) by Ficoll-Plaque (Pharmacia) solution were separated by adherence to a plastic tissue culture dish (Becton Dickinson) so as to enrich them as the monocyte fraction. The monocyte-enriched population was cultured in the presence of 1,000 U/ml of granulocyte-macrophage colony-stimulating factor (R&D System) and 1,000 U/ml of interleukin (IL)-4 (R&D System) in AIM-V Medium (Invitrogen) containing 2% heat-inactivated autologous serum (AS). After 7 days of culture, the cytokine-induced DCs were pulsed with 20 micro-g/ml of each of the synthesized peptides in the presence of 3 micro-g/ml of beta 2-microglobulin for 3 hrs at 37 degrees C. in AIM-V Medium. The generated cells appeared to express DC-associated molecules, such as CD80, CD83, CD86 and HLA class II, on their cell surfaces (data not shown). These peptide-pulsed DCs were then inactivated by X-irradiated (20 Gy) and mixed at a 1:20 ratio with autologous CD8+ T cells, obtained by positive selection with CD8 positive Isolation Kit (Dynal). These cultures were set up in 48-well plates (Corning); each well contained 1.5×10^4 peptide-pulsed DCs, 3×10^5 CD8+ T cells and 10 ng/ml of IL-7 (R&D System) in 0.5 ml of AIM-V/2% AS medium. Three days later, these cultures were supplemented with IL-2 (CHIRON) to a final concentration of 20 IU/ml. On days 7 and 14, the T cells were further stimulated with the autologous peptide-pulsed DCs. The DCs were prepared each time by the same way described above. CTL was tested against peptide-pulsed T2 cells after the 3rd round of peptide stimulation on day 21 (Tanaka H et al., Br J Cancer 2001 Jan. 5, 84(1): 94-9; Umano Y et al., Br J Cancer 2001 Apr. 20, 84(8): 1052-7; Uchida N et al., Clin Cancer Res 2004 Dec. 15, 10(24): 8577-86; Suda T et al., Cancer Sci 2006 May, 97(5): 411-9; Watanabe T et al., Cancer Sci 2005 August, 96(8): 498-506).
(§1) To examine specific CTL activity, interferon (IFN)-gamma enzyme-linked immunospot (ELISPOT) assay and IFN-gamma enzyme-linked immunosorbent assay (ELISA) were performed. Specifically, peptide-pulsed T2 (1×10^4/well) was prepared as stimulator cells. Cultured cells in 48 wells were used as responder cells. IFN-gamma ELISPOT assay and IFN-gamma ELISA assay were performed under manufacture procedure.

peptide-pulsed T2 [2] = test: IFN-gamma ELISA assay of CTL lines (HLA-A*0201); assay type: cell-based, human; settings: target cells pulsed with corresponding peptide vs without peptide pulse
Procedure: CTLs were expanded in culture using the method similar to the one described by Riddell et al. (Walter E A et al., N Engl J Med 1995 Oct. 19, 333(16): 1038-44; Riddell S R et al., Nat Med 1996 February, 2(2): 216-23). A total of 5×10^4 CTLs were suspended in 25 ml of AIM-V/5% AS medium with 2 kinds of human B-lymphoblastoid cell lines, inactivated by Mitomycin C, in the presence of 40 ng/ml of anti-CD3 monoclonal antibody (Pharmingen). One day after initiating the cultures, 120 IU/ml of IL-2 were added to the cultures. The cultures were fed with fresh AIM-V/5% AS medium containing 30 IU/ml of IL-2 on days 5, 8 and 11 (Tanaka H et al., Br J Cancer 2001 Jan. 5, 84(1): 94-9; Umano Y et al., Br J Cancer 2001 Apr. 20, 84(8): 1052-7; Uchida N et al., Clin Cancer Res 2004 Dec. 15, 10(24): 8577-86; Suda T et al., Cancer Sci 2006 May, 97(5): 411-9; Watanabe T et al., Cancer Sci 2005 August, 96(8): 498-506).
as §1

peptide-pulsed T2 [3] = test: IFN-gamma ELISA assay of CTL clones (HLA-A*0201); assay type: cell-based, human; settings: clones by limiting dilution; target cells pulsed with peptide
Procedure: The dilutions were made to have 0.3, 1, and 3 CTLs/well in 96 round-bottomed micro titer plate (Nalge Nunc International). CTLs were cultured with 1×10^4 cells/well of 2 kinds of human B-lymphoblastoid cell lines, 30 ng/ml of anti-CD3 antibody, and 125 U/ml of IL-2 in a total of 150 micro-l/well of AIM-V Medium containing 5% AS. 50 micro-1/well of IL-2 were added to the medium 10 days later so to reach a final concentration of 125 U/ml IL-2. CTL activity was tested on the 14th day, and CTL clones were expanded using the same method as described above (Uchida N et al., Clin Cancer Res 2004 Dec. 15, 10(24): 8577-86; Suda T et al., Cancer Sci 2006 May, 97(5): 411-9; Watanabe T et al., Cancer Sci 2005 August, 96(8): 498-506).
as §1

[4] = system: COS7 cells transfected with C6orf167 and HLA-A*0201; test: Specific CTL activity against target cells exogenously expressing C6orf167 and HLA-A*0201; assay type: cell-based, African green monkey; settings: for Specific CTL activity against control COS7 cells: COS7 transfected with either full length C6orf167 or HLA-A*0201 alone; for Specific CTL activity against COS7 cells expressing both C6orf167 and HLA-A*0201: CTL line (SEQ ID NO: 79) or CTL clone (SEQ ID NO: 114) as effector cells
From the text: The cDNA encoding an open reading frame of target genes or HLA-A*0201 was amplified by PCR. The PCR-amplified product was cloned into pCAGGS vector and pIRES vector (Clontech Laboratories, Inc., Cat. No. 631605). The plasmids were transfected into COS7, which is the target genes and HLA-A*0201-null cell line, using lipofectamine 2000 (Invitrogen) according to the manufacturer's recommended procedures. After 2 days from transfection, the transfected cells were harvested with versene (Invitrogen) and used as the target cells (5×10^4 cells/well) for CTL activity assay.
The established CTL lines and clones raised against each peptide were examined for the ability to recognize target cells that endogenously express C6orf167 and HLA-A*0201 molecule. Specific CTL activity against COS7 cells which transfected with both the full length of C6orf167 and HLA-A*0201 gene (a specific model for the target cells that exogenously express C6orf167 and HLA-A*0201 gene) was tested by using the CTL lines and clones raised by corresponding peptide as the effector cells. COS7 cells transfected with either full length of C6orf167 or HLA-A*0201 were prepared as the controls.

Row | Substance | Peptide specific CTL activity: IFN-gamma production by ELISPOT (peptide-pulsed T2 [1]) | IFN-gamma production of CTL lines by ELISA (peptide-pulsed T2 [2]) | IFN-gamma production of CTL clones by ELISA (peptide-pulsed T2 [3]) | Specific CTL activity against control COS7 cells [4] | Specific CTL activity against COS7 cells expressing both C6orf167 and HLA-A*0201 [4]
1 | TLLCDLISL [SEQ ID NO: 79] | potent IFN-gamma production | potent IFN-gamma production | Potent IFN-gamma productions | no significant specific CTL activity | potent CTL activity
2 | TLLSiYIDGV (TLLSIYIDGV; not fully specified; printed as TLLSiYIDGV) [SEQ ID NO: 114] | potent IFN-gamma production | potent IFN-gamma production | Potent IFN-gamma productions | no significant specific CTL activity | potent CTL activity

From US20120128705A1, “C6ORF167 PEPTIDES AND VACCINES CONTAINING THE SAME” (OncoTherapy Science, Inc., priority 2009, published 2012)
